20 molecules from patent publication US8344010B2, “Fused imidazole derivatives as TRPV3 antagonist” (Glenmark Pharmaceuticals S.A., priority 2008, dated 2013) can be followed below.

This assay deals with T1, Human TRPV3 (Homo sapiens, UniProt Q8NET8).
T1 construct: expressed in transfected cells; host or cells: CHO cells (selected with G-418)
T1 sequence (Q8NET8 1-790): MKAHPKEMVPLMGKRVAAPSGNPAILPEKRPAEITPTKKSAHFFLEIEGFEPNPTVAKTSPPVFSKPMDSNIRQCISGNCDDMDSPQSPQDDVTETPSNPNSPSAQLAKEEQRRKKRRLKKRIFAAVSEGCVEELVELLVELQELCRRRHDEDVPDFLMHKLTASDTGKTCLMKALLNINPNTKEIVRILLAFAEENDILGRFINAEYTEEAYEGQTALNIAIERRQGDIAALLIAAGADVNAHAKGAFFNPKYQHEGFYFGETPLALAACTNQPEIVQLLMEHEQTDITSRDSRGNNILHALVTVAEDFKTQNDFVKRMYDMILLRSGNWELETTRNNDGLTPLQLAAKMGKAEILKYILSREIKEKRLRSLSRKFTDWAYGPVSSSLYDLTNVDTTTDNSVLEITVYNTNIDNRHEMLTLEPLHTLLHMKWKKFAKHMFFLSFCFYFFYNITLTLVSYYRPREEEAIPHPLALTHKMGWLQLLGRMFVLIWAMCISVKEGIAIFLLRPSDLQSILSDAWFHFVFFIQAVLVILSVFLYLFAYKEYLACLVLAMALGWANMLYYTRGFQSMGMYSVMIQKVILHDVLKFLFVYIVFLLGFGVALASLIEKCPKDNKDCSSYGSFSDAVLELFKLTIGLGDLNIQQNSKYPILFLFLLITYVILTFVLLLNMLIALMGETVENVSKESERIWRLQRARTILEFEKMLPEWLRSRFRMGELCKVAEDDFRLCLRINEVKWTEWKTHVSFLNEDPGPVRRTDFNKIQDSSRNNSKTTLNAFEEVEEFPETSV
The experiment in a line: 45Calcium uptake assay: inhibition of 2-APB induced cellular uptake of radioactive calcium. The class given is cell-based. To be noted: human TRPV3 expressing CHO cells, 2-APB 500 μM; for inhibition at 1 µM: 1 μM test compound, read-out: Percentage Inhibition (1 μM); for inhibition at 10 µM: 10 μM test compound, read-out: Percentage Inhibition (10 μM). The procedure, abridged:
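CHO cells expressing human TRPV3 were preincubated with compound for 10 min (0.5% DMSO final), then given 500 μM 2-APB plus 5 μCi/ml 45Ca2+ for 4 min. Lysate radioactivity was counted by scintillation; responses as % of maximal without antagonist, with IC50 by nonlinear regression.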

Regarding `CCCCOc1c(/C=C/c2nc3ccccc3n2-c2ccc(C(F)(F)F)cn2)cccc1OC` [Example 85, 2-[(E)-2-(2-butoxy-3-methoxyphenyl)vinyl]-1-(5-trifluoromethylpyridin-2-yl)-1H-benzimidazole], the inhibition (commonly the change of the read-out against control, counted positive when it falls) at 1 µM was 71.1% and the inhibition at 10 µM turned out to be 90.2%. For the same molecule, under “class symbol”, the concentration for half-maximal inhibition (IC50) (as a rule, the concentration needed to halve the response being measured) is 100 to 500 nM.
With `COc1cccc(/C=C/c2nc3ccccc3n2-c2ccc(C)cc2)c1OCC1CC1` [Example 31, 2-[(E)-2-(2-Cyclopropylmethoxy-3-methoxyphenyl)vinyl]-1-(4-methylphenyl)-1H-benzimidazole], the inhibition at 1 µM stood at 47.3% and the inhibition at 10 µM worked out at 86.6%.
Regarding `COc1cccc(/C=C/c2nc3cc(F)cc(F)c3n2-c2ccc(C#N)cn2)c1OC1CCCC1` [Example 79, 6-{5,7-Difluoro-2-[(E)-2-(2-[cyclopentyloxy]-3-methoxyphenyl)vinyl]-1H-benzimidazol-1-yl}nicotinonitrile], the inhibition at 1 µM is 93.7% and the inhibition at 10 µM was 96.8%. Besides, where the note is “class symbol”, the IC50 lay within 50 to 100 nM. Also, the IC50 (numeric value) amounted to 69.2 nM.
On to `COc1cccc(/C=C/c2nc3cc(Cl)cnc3n2-c2ccc(C#N)cn2)c1OCC1CCC1` [Example 94, 6-(6-Chloro-2-{(E)-2-[2-(cyclobutylmethoxy)-3-methoxyphenyl]vinyl}-3H-imidazo[4,5-b]pyridin-3-yl)nicotinonitrile], for which the inhibition at 1 µM amounted to 94.5% and the inhibition at 10 µM was 98%. The IC50 (class symbol) is 50 to 100 nM.
Consider `COc1cccc(/C=C/c2nc3cc(F)c(F)cc3n2-c2ccc(C(=O)O)nn2)c1OC1CCCC1` [Example 74, 6-{2-[(E)-2-(2-Cyclopentyloxy-3-methoxyphenyl)vinyl]-5,6-difluoro-1H-benzimidazol-1-yl}pyridazine-3-carboxylic acid], for which the inhibition at 1 µM is 1.7% and the inhibition at 10 µM is 1.51%.
For `COc1cccc(/C=C/c2nc3ccccc3n2-c2nccs2)c1OC1CCCC1` [Example 47, 2-[(E)-2-(2-Cyclopentyloxy-3-methoxyphenyl)vinyl]-1-(1,3-thiazol-2-yl)-1H-benzimidazole], in that order: 22.4% and 79.7%.
For `COc1cccc(/C=C/c2nc3ccccc3n2-c2ncc(Br)cn2)c1OC1CCCC1` [Example 23, 1-(5-Bromopyrimidin-2-yl)-2-[(E)-2-(2-cyclopentyloxy-3-methoxyphenyl)vinyl]-1H-benzimidazole], in that order: 56% and 84.5%.
`COc1cccc(/C=C/c2nc3cc(F)c(Cl)cc3n2-c2ccc(C#N)cn2)c1OC1CCCC1` [Example 70, 6-{6-Chloro-2-[(E)-2-(2-[cyclopentyloxy]-3-methoxyphenyl)vinyl]-5-fluoro-1H-benzimidazol-1-yl}nicotinonitrile]: the inhibition at 1 µM stood at 96.2% and the inhibition at 10 µM turned out to be 98.1%. Moreover, the IC50 (class symbol) was in the range of 50 to 100 nM.
Taken in the same sequence, the figures for `COc1cccc(/C=C/c2nc3ccccc3n2-c2ccc(C#N)cn2)c1OCC(C)C` [Example 11, 6-(2-{(E)-2-[3-methoxy-2-(2-methylpropoxy)phenyl]ethenyl}-1H-benzimidazol-1-yl)pyridine-3-carbonitrile] were 94.8%, 97.4% and 100 to 500 nM.
For the molecule `COc1cccc(/C=C/c2nc3ccccc3n2Cc2ccc(C#N)cc2)c1OC1CCCC1` [Example 43, 4-({2-[(E)-2-(2-Cyclopentyloxy-3-methoxyphenyl)vinyl]-1H-benzimidazol-1-yl}methyl)benzonitrile], the inhibition at 1 µM was 88.8% and the inhibition at 10 µM was 97.5%. Under “class symbol”, the concentration for half-maximal inhibition (IC50) was 100 to 500 nM.
Taken in the same sequence, the figures for `COc1cccc(/C=C/c2nc3ccccc3n2-c2ncccc2C(F)(F)F)c1OC1CCCC1` [Example 24, 2-[(E)-2-(2-Cyclopentyloxy-3-methoxyphenyl)vinyl]-1-[3-(trifluoromethyl)pyridin-2-yl]-1H-benzimidazole] were 84.7%, 98% and above 500 nM.
Taken in the same sequence, the figures for `COc1cccc(/C=C/c2nc3cc(Cl)ccc3n2-c2ccc(C#N)cn2)c1OC1CCCC1` [Example 55, 6-{5-chloro-2-[(E)-2-(2-cyclopentyloxy-3-methoxyphenyl)vinyl]-1H-benzimidazol-1-yl}nicotinonitrile] were 95.9%, 97.6% and 100 to 500 nM.
Taken in the same sequence, the figures for `COc1cccc(/C=C/c2nc3ccccc3n2-c2ccc(C#N)cn2)c1OC(C)C` [Example 9, 6-{2-[(E)-2-(2-Isopropoxy-3-methoxyphenyl)vinyl]-1H-benzimidazol-1-yl}nicotinonitrile] were 79.7%, 97.9% and above 500 nM.
In the case of `COc1cccc(/C=C/c2nc3ccccc3n2Cc2ccc(C(C)(C)C)cc2)c1OC1CCCC1` [Example 40, 2-[(E)-2-(2-Cyclopentyloxy-3-methoxyphenyl)vinyl]-1-(4-tert-butylbenzyl)-1H-benzimidazole], the inhibition at 1 µM is 11.7% and the inhibition at 10 µM is 12.3%.
Take `CCOc1c(/C=C/c2nc3cc(F)c(F)cc3n2-c2ccc(C#N)cn2)cccc1OC` [Example 63, 6-{2-[(E)-2-(2-Ethoxy-3-methoxyphenyl)vinyl]-5,6-difluoro-1H-benzimidazol-1-yl}nicotinonitrile]: the inhibition at 1 µM was 80.8% and the inhibition at 10 µM amounted to 97.7%. Also, where the note is “class symbol”, the 50% inhibitory concentration (IC50) lay in the range of 100 to 500 nM.
Consider `COc1cccc(/C=C/c2nc3cnccc3n2-c2ccc(C#N)cn2)c1OC1CCCC1` [Example 104, 6-{2-[(E)-2-(2-[Cyclopentyloxy]-3-methoxyphenyl)vinyl]-1H-imidazo[4,5-c]pyridin-1-yl}nicotinonitrile], for which the inhibition at 1 µM turned out to be 48.7% and the inhibition at 10 µM was 98.3%.
As for `COc1cccc(/C=C/c2nc3ccccc3n2-c2ccc(C#N)cn2)c1OCc1ccccc1C#N` [Example 15], the inhibition at 1 µM came to 90.3% and the inhibition at 10 µM is 95.1%. In addition, the 50% inhibitory concentration (IC50) (class symbol) is above 500 nM.
For `N#Cc1ccc(-n2c(/C=C/c3cccc(OC(F)F)c3OCC3CCC3)nc3cc(Cl)cnc32)nc1` [Example 102, 6-(6-Chloro-2-{(E)-2-[2-(cyclobutylmethoxy)-3-difluoromethoxyphenyl]vinyl}-3H-imidazo[4,5-b]pyridin-3-yl)nicotinonitrile], in that order: 95.1%, 98.1% and 50 to 100 nM.
For `COc1cccc(/C=C/c2nc3ccccc3n2Cc2ccc(C#N)cc2)c1OCC1CC1` [Example 42, 4-({2-[(E)-2-(2-Cyclopropylmethoxy-3-methoxyphenyl)vinyl]-1H-benzimidazol-1-yl}methyl)benzonitrile], the inhibition at 1 µM amounted to 60.2% and the inhibition at 10 µM turned out to be 87.3%.
For `COc1cccc(/C=C/c2nc3cc(F)c(F)cc3n2-c2ncccc2C#N)c1OC1CCCC1` [Example 61, 2-{2-[(E)-2-(2-Cyclopentyloxy-3-methoxyphenyl)vinyl]-5,6-difluoro-1H-benzimidazol-1-yl}nicotinonitrile], in that order: 44.8% and 96%.
